Among the test systems are NCI-H522 lung; SNB-19 CNS; CAKI-1 renal; OVCAR-4 ovarian; UACC-257 melanoma; ACHN renal; T-47D breast; OVCAR-5 ovarian; SK-MEL-2 melanoma; K-562 leukemia.
Holding throughout (test): growth of human tumour cells (NCI), 48 h

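48-hour exposure; five concentrations; linearly interpolated endpoints. GI50 marks 50% less growth. The concentration for full growth arrest is given as TGI.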 Where a SMILES comes first, the peptide text is derived from it. [ ]: non-standard residue; d: D form. pGlu = O=C1CC[CH](C(=O)O)N1

As to `O=C1C(Cl)=C(Nc2cccc(Cl)c2)C(=O)N1Cc1ccc(Cl)cc1`, the GI50 in the test with NCI-H522 lung is 0.916 µM; in the test on SNB-19 CNS, 4.06 µM; in the test on CAKI-1 renal it was 0.919 µM; in the test with OVCAR-4 ovarian, 4.68 µM; in the test with UACC-257 melanoma, 6.39 µM; in the test with ACHN renal it was 1.39 µM. For the same compound, the GI50 with T-47D breast was 3.38 µM; in the test on OVCAR-5 ovarian, 0.864 µM; in the test with SK-MEL-2 melanoma, 2.2 µM; in the test with K-562 leukemia, 0.858 µM. Besides, the TGI in the test with NCI-H522 lung is 8.21 µM; in the test with SNB-19 CNS it was 33 µM; in the test with CAKI-1 renal, 13.9 µM; with OVCAR-4 ovarian it was over 64.2 µM; in the test on UACC-257 melanoma, 28.2 µM; in the test with ACHN renal, 15 µM. In addition, the TGI in the test with T-47D breast was 34 µM; with OVCAR-5 ovarian, 15.1 µM; with K-562 leukemia, over 94.1 µM.
Regarding `CC(C)Cn1cnc2c(SCc3ccc(Cl)cc3Cl)nc(N)nc21`, the TGI was 37 µM in the test on NCI-H522 lung; over 100 µM in the test with SNB-19 CNS; over 100 µM with CAKI-1 renal; over 100 µM in the test with OVCAR-4 ovarian; 74.6 µM in the test on UACC-257 melanoma; 76.5 µM in the test on ACHN renal. The TGI with T-47D breast, with OVCAR-5 ovarian, with SK-MEL-2 melanoma and in the test on K-562 leukemia was over 100 µM each time.
On to `COc1ccc2[nH]cc(-c3ccc(-c4c[nH]c5ccc(OC)cc45)s3)c2c1`, for which the GI50 in the test on NCI-H522 lung was 1.56 µM; with SNB-19 CNS, 10.1 µM; in the test with CAKI-1 renal, 5.54 µM; in the test on OVCAR-4 ovarian, 6.82 µM; with UACC-257 melanoma, 11.4 µM; in the test on ACHN renal, 4.14 µM. The GI50 was 11.1 µM in the test on T-47D breast, 6.43 µM with OVCAR-5 ovarian, 18.1 µM with SK-MEL-2 melanoma and 2.54 µM in the test with K-562 leukemia. The TGI in the test with NCI-H522 lung was 4.46 µM; in the test with SNB-19 CNS, 34.6 µM; in the test on CAKI-1 renal, 19 µM; in the test with OVCAR-4 ovarian, 23.7 µM; in the test on UACC-257 melanoma, over 46.5 µM; with ACHN renal, 15.9 µM. Moreover, the TGI in the test with T-47D breast is 41.5 µM; in the test with OVCAR-5 ovarian, 18.7 µM; with SK-MEL-2 melanoma, 51 µM; with K-562 leukemia, 7.3 µM.
For `C[C@H](NC(=O)[C@@H](C)N)[C@H](Oc1ccc2c(cnn2-c2ccc(F)cc2)c1)c1ccc2c(c1)OCCO2`, the GI50 is 1.9 µM with NCI-H522 lung; 3.29 µM with SNB-19 CNS; 1.09 µM with CAKI-1 renal; 2.84 µM in the test on OVCAR-4 ovarian; 1.94 µM with UACC-257 melanoma; 1.83 µM with ACHN renal. The GI50 with T-47D breast is 2.19 µM; with OVCAR-5 ovarian it was 2.29 µM; in the test on SK-MEL-2 melanoma it was 1.91 µM; with K-562 leukemia, 1.98 µM. Further, the TGI in the test with NCI-H522 lung stood at 3.78 µM; with SNB-19 CNS, 12.4 µM; with CAKI-1 renal, 4.79 µM; in the test with OVCAR-4 ovarian, 12.1 µM; with UACC-257 melanoma, 3.61 µM; in the test on ACHN renal, 4.9 µM. The TGI in the test on T-47D breast was determined as 5.41 µM; with OVCAR-5 ovarian, 7.11 µM; in the test on SK-MEL-2 melanoma, 3.92 µM; in the test with K-562 leukemia it was 4.7 µM.
Consider `N#CC1(C#N)C2(c3ccccc3)OC(c3ccccc3)(c3cc4ccccc4cc32)C1(C#N)C#N`, for which the TGI was 8.43 µM with NCI-H522 lung; 32.2 µM in the test on SNB-19 CNS; 24.1 µM in the test on CAKI-1 renal; 27.2 µM in the test on OVCAR-4 ovarian; over 54.2 µM with UACC-257 melanoma; 28.5 µM with ACHN renal. Also, the TGI in the test on T-47D breast turned out to be 46.5 µM; with OVCAR-5 ovarian, 29.3 µM; in the test on SK-MEL-2 melanoma, 37.9 µM; in the test on K-562 leukemia, 8.18 µM.
`COc1cccc(N2CCN(CC(=O)N3CCN(c4nnc(-c5ccc(Cl)cc5)c(-c5ccc(Cl)cc5)n4)CC3)CC2)c1`: the GI50 in the test on NCI-H522 lung was 19.8 µM; with SNB-19 CNS, 37.9 µM; with CAKI-1 renal, 14.8 µM; with OVCAR-4 ovarian, 25.3 µM; in the test on UACC-257 melanoma, 51.7 µM; with ACHN renal, 10.8 µM. In addition, the GI50 in the test on T-47D breast was 3.73 µM; in the test on OVCAR-5 ovarian it was over 100 µM; in the test on SK-MEL-2 melanoma, 35.1 µM; with K-562 leukemia, 9.89 µM. The TGI in the test with NCI-H522 lung was over 100 µM; in the test with SNB-19 CNS, over 100 µM; in the test with CAKI-1 renal it was over 100 µM; with OVCAR-4 ovarian, over 100 µM; in the test on UACC-257 melanoma, over 100 µM; with ACHN renal it was 32.1 µM. In addition, the TGI is 47.6 µM with T-47D breast, over 100 µM in the test on OVCAR-5 ovarian, over 100 µM with SK-MEL-2 melanoma and over 100 µM with K-562 leukemia.
Consider `O.O.[NH-]C1(C(=O)O)CCCC1.[NH-]C1(C(=O)O)CCCC1.[Ni+2]`, for which the TGI with NCI-H522 lung, with SNB-19 CNS, in the test with CAKI-1 renal, with OVCAR-4 ovarian, with UACC-257 melanoma and in the test with ACHN renal was over 100 µM in each case. Also, the TGI with T-47D breast, in the test on OVCAR-5 ovarian, in the test with SK-MEL-2 melanoma and in the test with K-562 leukemia was over 100 µM throughout. Further, the GI50 with ACHN renal and with T-47D breast was over 100 µM throughout.
For the compound `COc1cc(C(O)CCBr)c(OC)cc1C` (stereo unspecified), the TGI in the test on NCI-H522 lung was over 66.3 µM; with SNB-19 CNS, over 100 µM; in the test on CAKI-1 renal, over 100 µM; in the test with OVCAR-4 ovarian, over 100 µM; in the test on UACC-257 melanoma, over 100 µM; with ACHN renal, over 100 µM. For the same compound, the TGI is over 100 µM in the test with T-47D breast, over 100 µM in the test with OVCAR-5 ovarian, 68.2 µM in the test on SK-MEL-2 melanoma and over 100 µM in the test on K-562 leukemia.
As for `CN(/N=C/c1cccc2cccnc12)c1ccc([N+](=O)[O-])cc1[N+](=O)[O-]`, the TGI was 57.2 µM in the test with NCI-H522 lung; 40.2 µM in the test with SNB-19 CNS; 64.9 µM with CAKI-1 renal; over 70.3 µM in the test with OVCAR-4 ovarian; over 100 µM with UACC-257 melanoma; 59.3 µM with ACHN renal. Also, the TGI in the test with T-47D breast was 85.4 µM; in the test on OVCAR-5 ovarian, over 89.6 µM; in the test with SK-MEL-2 melanoma it was 47.4 µM; in the test with K-562 leukemia, over 100 µM.
With `CCOC(=O)N1CCN(/[N+]([O-])=N/Oc2ccc([N+](=O)[O-])cc2[N+](=O)[O-])CC1`, the GI50 in the test on NCI-H522 lung is 4.36 µM; in the test on SNB-19 CNS it was 6.68 µM; with CAKI-1 renal, 0.521 µM; in the test with OVCAR-4 ovarian, 0.438 µM; in the test with UACC-257 melanoma it was 2.27 µM; in the test on ACHN renal it was 0.479 µM. The GI50 in the test with T-47D breast is 8 µM; in the test with OVCAR-5 ovarian it was 2.16 µM; in the test with SK-MEL-2 melanoma it was 7.08 µM; with K-562 leukemia, 0.153 µM. In addition, the TGI amounted to 22.4 µM in the test with NCI-H522 lung; 20.7 µM in the test with SNB-19 CNS; 1.96 µM in the test on CAKI-1 renal; 1.78 µM in the test with OVCAR-4 ovarian; 7 µM with UACC-257 melanoma; 1.37 µM in the test with ACHN renal. For the same compound, the TGI in the test with T-47D breast was over 67.1 µM; in the test on OVCAR-5 ovarian, 9.09 µM; in the test on SK-MEL-2 melanoma, 25.9 µM; with K-562 leukemia it was 3.72 µM.
With `CCNC(=O)C1CCCN1C(=O)C(CCCN=C(N)N)NC(=O)C(CC(C)C)NC(=O)C(CC(C)C)NC(=O)C(Cc1ccc(O)cc1)NC(=O)C(CO)NC(=O)C(Cc1c[nH]c2ccccc12)NC(=O)C(Cc1cnc[nH]1)NC(=O)C1CCC(=O)N1` (stereo unspecified) ([pGlu]HWSYLLRP-NHEt; configuration not given here), the GI50 with NCI-H522 lung, in the test with SNB-19 CNS, in the test on CAKI-1 renal, with OVCAR-4 ovarian, in the test with UACC-257 melanoma and in the test with ACHN renal was over 100 µM throughout. Moreover, the GI50 in the test with T-47D breast, in the test on OVCAR-5 ovarian, in the test with SK-MEL-2 melanoma and in the test with K-562 leukemia was over 100 µM in each case. The TGI with NCI-H522 lung, with SNB-19 CNS, in the test with CAKI-1 renal, in the test with OVCAR-4 ovarian, with UACC-257 melanoma and in the test on ACHN renal was over 100 µM in each case. In addition, the TGI in the test with T-47D breast, with OVCAR-5 ovarian, in the test with SK-MEL-2 melanoma and with K-562 leukemia was over 100 µM each time.
`O=C(CCCCCCNC(=O)c1cnc(N(c2ccccc2)c2ccccc2)nc1)NO`: the GI50 in the test with NCI-H522 lung is 0.786 µM; with SNB-19 CNS it was 3.67 µM; in the test on CAKI-1 renal, 6.38 µM; in the test on OVCAR-4 ovarian, 5.56 µM; with UACC-257 melanoma it was 2.23 µM; with ACHN renal, 3.99 µM. Further, the GI50 in the test on T-47D breast was 0.907 µM; with OVCAR-5 ovarian, 3.14 µM; with SK-MEL-2 melanoma it was 1.9 µM; with K-562 leukemia, 2.47 µM. Besides, the TGI was 5.66 µM in the test with NCI-H522 lung; 31.3 µM with SNB-19 CNS; 43.3 µM in the test on CAKI-1 renal; 72.9 µM in the test with OVCAR-4 ovarian; 30.5 µM with UACC-257 melanoma; 23.2 µM in the test with ACHN renal. Moreover, the TGI in the test with T-47D breast is 5.83 µM; in the test on OVCAR-5 ovarian, 26.1 µM; in the test with SK-MEL-2 melanoma, 8.36 µM; in the test on K-562 leukemia, over 100 µM.

(Values after PubChem BioAssay (NCI).)
